# Test system: vitellogenin (Vg) transcription in the female mosquito fatbody
# Test: Vg expression 24 h post-feeding on diets (q-RT-PCR)
# Assay type: in vivo, Anopheles coluzzii
# Details: ΔΔCT method
# Method: FIG. 2a. Effects of the fresh-blood-free diets on oogenesis: Expression of vitellogenin precursor. Relative expression was determined using the ΔΔCT method as fold change to mosquitoes fed on the ILD, where RLD-NoP and ILD-NoP represent liquid diet compositions not supplemented with peptides, blood represent conventional blood diets and the remaining RLDs and ILDs represent respectively Rich Liquid Diet and Initial Liquid Diet supplemented with the correspondent indicated peptide P1 to P6.
# Oogenesis was assessed by changes in Vg expression 24 h post-feeding (FIG. 2a). Vg expression levels in the fatbodies was quantified using the ΔΔCT method a) after a blood meal, b) after microinjection with the different peptides, and c) after being fed on the various artificial diets as described in section 4. […]
# Quantitative Real-time Polymerase Chain Reaction (q-RT-PCR) analysis was used to quantify the expression of Vitellogenin-1 precursor (Vg), a protein biomarker of mosquito oogenesis initiation. Vg expression levels in the fatbodies were quantified using the ΔΔCT method a) after a blood meal, b) after microinjection with the different peptides, and c) after being fed on the various artificial diets. […]
# Oogenesis was assessed by changes in Vg expression 24 h post-feeding mosquitoes with the artificial diets of Examples 1 and 2 and conventional vertebrate blood diet (FIG. 2a). […]
substance,measurement,value
"Glucagon-like peptide 2 (HADGSFSDEMNTILDNLAARDFINWLIQTKITD; Glucagon-like peptide 2; UniProt P01275 146-178, looked up) [Diet P2, glucagon-like peptide 2 (1-33) (human), from Bachem]",Vg transcript levels after feeding,significantly increased VTG expression

# — patent publication US20210030025A1, “BLOOD-FREE DIET FOR REARING MALARIA MOSQUITO VECTORS” (UNIVERSIDADE NOVA DE LISBOA-INSTITUTO DE HIGIENE E MEDICINA …, priority 2018, published 2021)
